Data set [1] has as its system BxPC3 pancreatic carcinoma cells. Kind of data set: MTT cytotoxicity test, BxPC3. The data set is classed as cell-based, human. The settings on record: for IC50: BxPC3, 72 h, MTT, ± S.D.; for times more effective than cisplatin: BxPC3 cells. Here is the method: (§1) The cytotoxic activity of the complexes and of the uncoordinated ligands was evaluated by the MTT test on a panel of human tumor cell lines containing examples of pancreatic (BxPC3), colorectal (HCT-15), breast (MCF-7), cervical (A431), and lung (A549) cancers as well as of melanoma (A375). For comparison purposes, the cytotoxicity of cisplatin was evaluated under the same experimental conditions.
(§2) Cisplatin was dissolved in 0.9% NaCl solution.
(§3) Human breast (MCF-7), colon (HCT-15), lung (A549) and pancreatic (BxPC3) carcinoma cell lines together with melanoma (A375) cells were obtained from American Type Culture Collection (ATCC, Rockville, MD). The human ovarian cancer cell line 2008 and its cisplatin resistant variant, C13*, were kindly provided by Prof. G. Marverti (Department of Biomedical Science of Modena University, Italy). Human cervical carcinoma (A431) cells were kindly provided by Prof. F. Zunino (Division of Experimental Oncology B, Istituto Nazionale dei Tumori, Milan, Italy). Cell lines were maintained in the logarithmic phase at 37 °C in a 5% carbon dioxide atmosphere using the following culture media containing 10% fetal calf serum (Euroclone, Milan, Italy), antibiotics (50 units/mL penicillin and 50 μg/mL streptomycin) and 2 mM L-glutamine: (i) RPMI-1640 medium (Euroclone) for 2008, C13*, MCF-7, HCT-15, A431 and BxPC3 cells, (ii) F-12 HAM’S (Sigma Chemical Co.) for A549 cells, iii) DMEM (Sigma Chemical Co.) for A375 cells.
(§4) The growth inhibitory effect toward tumor cells was evaluated by means of the MTT assay. Briefly, (3–8) × 10^3 cells/well, dependent upon the growth characteristics of the cell line, were seeded in 96-well microplates in growth medium (100 μL). After 24 h, the medium was removed and replaced with fresh medium containing the compound to be studied at the appropriate concentration. Triplicate cultures were established for each treatment. After 24, 48, or 72 h, each well was treated with 10 μL of a 5 mg/mL MTT saline solution and, after 5 h of incubation, 100 μL of a sodium dodecylsulfate (SDS) solution in 0.01 M HCl was added. After an overnight incubation, cell growth inhibition was detected by measuring the absorbance of each well at 570 nm using a Bio-Rad 680 microplate reader. The mean absorbance for each drug dose was expressed as a percentage of the control, untreated well absorbance and plotted vs drug concentration. The IC50 values, the drug concentrations that decrease the mean absorbance at 570 nm to 50% of that of untreated control wells, were calculated from the dose–response curves with the four-parameter logistic model (4PL). The final value is the mean ± S.D. of at least three independent experiments performed in triplicate.
In general terms: Tetrazolium assays rely on reduction of a dye to a coloured formazan, in cell work by metabolically active cells.

For data set [2], the system named is MCF-7 breast carcinoma cells. Briefly: MTT cytotoxicity test, MCF-7. The settings on record: MCF-7, 72 h, ± S.D. The data set is classed as cell-based, human. How it is done: as §1, §2, §3, §4
Data set [3] deals with A431 cervical carcinoma cells. Briefly: MTT cytotoxicity test, A431. The class given is cell-based, human. The settings on record: A431, 72 h, ± S.D. Here is the method:
as §1, §2, §3, §4

The subject of data set [4] is A549 lung carcinoma cells. Briefly: cells. The settings on record: for IC50: A549, 72 h, MTT, ± S.D. Here is the method:
as §1, §2, §3, §4

For data set [5], the system named is C13* cisplatin-resistant ovarian cancer cells. Kind of data set: MTT cytotoxicity test, cisplatin-resistant C13*. The data set is classed as cell-based, human. The settings on record: for IC50: C13* cisplatin-resistant, 72 h, MTT, ± S.D.; for RF (resistance factor): IC50 resistant (C13*) / parent line (2008). Here is the method:
The cytotoxic properties of the complexes were also evaluated in a pair of tumor cell lines suitably selected for their sensitivity and resistance to cisplatin (adenocarcinoma cells 2008/C13^*). Cross-resistance profiles were evaluated by means of the resistance factor (RF), defined as the ratio between IC50 values calculated for the resistant cells and those obtained with the sensitive ones (Table 2). The phenomenon of cisplatin resistance is multifactorial in nature.
as §2, §3, §4

Data set [6] concerns nuclear DNA of A375 cells. Briefly: Nuclear DNA platination (GF-AAS). The class given is cell-based, human. The settings on record: A375, 5 μM, 24 h. Here is the method: It is well known that the main cellular target of platinum complexes is the DNA, and platination of nuclear DNA is a critical step in triggering the death of cancer cells by platinum-based drugs. On this basis, the amount of platinum bound to nuclear DNA was also assessed in A375 cells treated with the tested Pt(IV) complexes. Cells were treated for 24 h with 5 μM of the tested complexes, the nuclear DNA was isolated and the amount of Pt in each sample was determined by means of GF-AAS analysis. The results expressed as pg Pt/ng DNA are depicted in Fig. 7. […] In particular, 1P led to a roughly 60-fold higher DNA platination level with respect to cisplatin.
A375 cells (3 × 10^6) were seeded in 10 cm Petri dishes in 10 mL of culture medium. Subsequently, cells were treated with the tested complexes (5 μM) for 24 h. The DNA was extracted and purified by a commercial spin column quantification kit (Qiagen DNeasy Blood and Tissue Kit). Only highly purified samples (A260/A230 ≅ 1.8 and […]) were included for analysis to avoid any artifacts. The samples were completely dried and re-dissolved in 200 μL of Milli-Q water (18.2 MΩ) for at least 20 min at 65 °C in a shaking thermo-mixer, mineralized and analyzed for total Pt content by GF-AAS as described above.

A further data set deals with A375 cells. Kind of data set: ROS production (CM-H2DCFDA probe). The data set is classed as cell-based, human. The settings on record: A375, 12.5 μM, compared with antimycin positive control. Here is the method: ROS are products of normal cell metabolism but their levels can be increased upon exposure to toxic agents or interference with the cellular redox network. […] Consequently, cellular ROS levels upon treatment with equal doses (12.5 μM) of the different platinum complexes were monitored in A375 cancer cells by using the peroxide-sensitive fluorescent probe CM-H2DCFDA (5-(and-6)-chloromethyl-2′,7′-dichlorodihydrofluorescein diacetate, acetyl ester). Antimycin, a classical inhibitor of the mitochondrial respiratory chain at the level of complex III, was used as a positive control.
Figure 8 ROS production in A375 cells. Cells were preincubated in PBS/10 mM glucose medium for 20 min at 37 °C in the presence of 10 μM CM-DCFDA and then treated with equimolar doses (12.5 μM) of indole propionic acid Pt(IV) derivatives (panel A) or indole acetic acid Pt(IV) derivatives (panel B). The fluorescence of DCF was measured.
The production of ROS was measured in A375 cells (10^4 per well) grown for 24 h in 96-well plates in DMEM medium without phenol red (Sigma Chemical Co.). Cells were then washed with PBS and loaded with 10 μM 5-(and-6)-chloromethyl-2′,7′-dichlorodihydrofluorescein diacetate, acetyl ester (CM–H2DCFDA) (Molecular Probes-Invitrogen) for 25 min in the dark. Afterwards, cells were washed with PBS and incubated with increasing concentrations of the tested complexes. The fluorescence increase was estimated with a plate reader (Fluoroskan Ascent FL, Labsystem, Finland) at 485 (excitation) and 527 nm (emission). Antimycin (3 μM, Sigma Chemical Co.), a potent inhibitor of Complex III in the electron transport chain, was used as positive control.

As a reminder, the IC50 is the concentration that inhibits the measured activity by half.

A value given as a limit tells only on which side of the number the result lay.

For the molecule `[NH2][Pt]([NH2])([OH])([Cl])([Cl])[O]C(=O)CCc1c[nH]c2ccccc12` [Complex 1P, cis,cis,trans-[Pt(NH3)2Cl2(IPA)(OH)]], the IC50 in data set [1] was found to be 2260 ± 990 nM; in data set [2], 3.78 ± 0.16 µM; in data set [3], 1.62 ± 0.34 µM; in data set [4], 2660 ± 540 nM; in data set [5], 1.14 ± 0.5 µM. Also, the “times more effective than cisplatin” value in data set [1] is given as “four times”. Moreover, the “times more cytotoxic than cisplatin” value in data set [4] was “four times”. Moreover, the “RF (resistance factor)” value in data set [5] was 0.8. Also, the “DNA platination (in words)” value in data set [6] is reported as “highest degree of DNA platination”. In addition, the “DNA platination level, fold higher than cisplatin” value in data set [6] (GF-AAS) is “roughly 60”. For the same molecule, in the data set with A375 cells, the “ROS production (in words)” value is recorded as “superior to that induced by antimycin”.
`[NH2][Pt]([NH2])([Cl])([Cl])([O]C(=O)CCC(=O)O)[O]C(=O)Cc1c[nH]c2ccccc12` [Complex 4A]: the concentration for half-maximal inhibition (IC50) is over 50000 nM in data set [1]; over 50 µM in data set [2]; 3.94 ± 0.57 µM in data set [3]; 18100 ± 4320 nM in data set [4]; over 50 µM in data set [5]. In addition, the “DNA platination (in words)” value in data set [6] is listed as “lowest DNA platination capability”. Further, the “ROS production (in words)” value in the data set on A375 cells is given as “did not alter the cellular ROS concentration”.
Consider `CC(=O)[O][Pt]([NH2])([NH2])([Cl])([Cl])[O]C(=O)Cc1c[nH]c2ccccc12` [Complex 5A], for which the IC50 came out at 44400 ± 6190 nM in data set [1]; 43.26 ± 0.22 µM in data set [2]; 3.07 ± 0.31 µM in data set [3]; 2800 ± 90 nM in data set [4]; 46.6 ± 3.41 µM in data set [5]. The “RF (resistance factor)” value in data set [5] stood at 1.1. Besides, the “DNA platination (in words)” value in data set [6] is reported as “lowest DNA platination capability”. Moreover, the “ROS production (in words)” value in the data set with A375 cells is recorded as “did not alter the cellular ROS concentration”.
As for `[NH2][Pt]([NH2])([OH])([Cl])([Cl])[O]C(=O)Cc1c[nH]c2ccccc12` [Complex 1A], the IC50 in data set [1] was 2640 ± 970 nM; in data set [2] it was 3.62 ± 0.94 µM; in data set [3], 2.1 ± 1.04 µM; in data set [4], 3620 ± 230 nM; in data set [5] it was 2.51 ± 1.5 µM. In data set [1], the “times more effective than cisplatin” value was “four times”. In addition, in data set [4], the “times more cytotoxic than cisplatin” value is on record as “four times”. Also, the “RF (resistance factor)” value in data set [5] is on record as 0.9. For the same molecule, the “DNA platination (in words)” value in data set [6] is “most effective platination of cellular DNA”.
Consider `[NH2][Pt]([NH2])([Cl])([Cl])([O]C(=O)Cc1c[nH]c2ccccc12)[O]C(=O)c1ccccc1` [Complex 3A], for which the IC50 in data set [1] was 2560 ± 1070 nM; in data set [2], 3.76 ± 0.76 µM; in data set [3] it was 6.31 ± 0.94 µM; in data set [4], 2590 ± 130 nM; in data set [5] it was 6.52 ± 1.96 µM. In addition, the “RF (resistance factor)” value in data set [5] amounted to 0.7. Moreover, the “DNA platination (in words)” value in data set [6] is listed as “most effective platination of cellular DNA”.

Values taken from article PMC4941645, “Oxidative Stress Induced by Pt(IV) Pro-drugs Based on the Cisplatin Scaffold and Indole Carboxylic Acids in Axial Position” (Scientific Reports, 2016).
